Among the test systems are M14 melanoma; RXF 393 renal; UACC-62 melanoma; COLO 205 colon; UO-31 renal; OVCAR-5 ovarian; KM12 colon; NCI-H460 lung; CAKI-1 renal.
Common to all, as to experiment: inhibition of tumour cell growth, NCI panel, 48 h

The structures appear in SMILES notation.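 In this assay, cells in 96-well plates receive the compound at five concentrations for 48 hours. Endpoints are linearly interpolated between the surrounding concentrations. GI50 = concentration required for 50% inhibition of growth. TGI is the concentration that stops growth completely.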

Drawing on PubChem BioAssay (NCI), this text covers TGI and GI50 for 22 molecules.

For the molecule `CCOC(=O)/C(O)=C(/c1n[nH]c(=O)c2ccccc12)[N+](=O)[O-]`, the TGI with M14 melanoma, with RXF 393 renal, in the experiment with UACC-62 melanoma, in the experiment on COLO 205 colon, with UO-31 renal and with OVCAR-5 ovarian was greater than 100 µM in each case. Also, the TGI in the experiment with KM12 colon and in the experiment with NCI-H460 lung was greater than 100 µM throughout.
For the molecule `COC(=O)C1=C(O)c2cc(OC)c(OC)c(OC)c2[C@H](c2cc(OC)c(OC)c(OC)c2)C1C(=O)OC` (stereo not given in full), the TGI in the experiment with M14 melanoma was greater than 100 µM; in the experiment with RXF 393 renal, 59.5 µM; in the experiment on UACC-62 melanoma, 76 µM; in the experiment with COLO 205 colon, 37.9 µM; in the experiment with UO-31 renal, greater than 100 µM; in the experiment on OVCAR-5 ovarian, greater than 100 µM. Moreover, the TGI in the experiment with KM12 colon, in the experiment on NCI-H460 lung and in the experiment with CAKI-1 renal was greater than 100 µM throughout.
On to `O=S(=O)(O)O.[NH-]C1CCCCC1[NH-].[Pt+2]` (stereo not given), for which the GI50 with M14 melanoma, in the experiment on RXF 393 renal, with UACC-62 melanoma, in the experiment with COLO 205 colon, in the experiment with UO-31 renal and in the experiment with OVCAR-5 ovarian was greater than 100 µM throughout. Further, the figures for the GI50 with KM12 colon and with NCI-H460 lung were greater than 100 µM and 41 µM, respectively. The TGI in the experiment with M14 melanoma, with RXF 393 renal, in the experiment on UACC-62 melanoma, in the experiment on COLO 205 colon, in the experiment with UO-31 renal and in the experiment on OVCAR-5 ovarian was greater than 100 µM each time. In addition, the TGI in the experiment on KM12 colon and with NCI-H460 lung was greater than 100 µM each time.
`O=c1cccccc1NCCOCCNc1cccccc1=O`: the TGI in the experiment with M14 melanoma, in the experiment on UACC-62 melanoma, with COLO 205 colon, in the experiment with UO-31 renal, with OVCAR-5 ovarian and in the experiment with KM12 colon was greater than 100 µM in each case. The TGI with NCI-H460 lung and in the experiment with CAKI-1 renal was greater than 100 µM throughout.
For the molecule `Cc1[nH]c2ccccc2c1C1Cc2ccccc2N1C(=O)/C=C/C=C/c1ccccc1` (stereo not given), the TGI with M14 melanoma, with RXF 393 renal, in the experiment on UACC-62 melanoma, with COLO 205 colon, in the experiment with UO-31 renal and with OVCAR-5 ovarian was greater than 100 µM each time. The TGI with KM12 colon, with NCI-H460 lung and in the experiment on CAKI-1 renal was greater than 100 µM in each case.
As for `O=S(=O)(/C=C/c1ccc(Cl)cc1Cl)Cc1ccccc1CS(=O)(=O)/C=C/c1ccc(Cl)cc1Cl`, the TGI in the experiment on M14 melanoma, in the experiment on RXF 393 renal, in the experiment with UACC-62 melanoma, in the experiment with COLO 205 colon, in the experiment with UO-31 renal and in the experiment with OVCAR-5 ovarian was greater than 100 µM each time. Moreover, the TGI with KM12 colon, in the experiment with NCI-H460 lung and with CAKI-1 renal was greater than 100 µM each time.
With `CCOC(C)C(/C=N/NC(N)=S)=NNC(N)=S` (stereo not given), the TGI in the experiment on UACC-62 melanoma was greater than 100 µM; in the experiment on COLO 205 colon, greater than 100 µM; with UO-31 renal, greater than 77.2 µM; in the experiment on OVCAR-5 ovarian, greater than 100 µM; with KM12 colon, greater than 100 µM; with NCI-H460 lung, greater than 100 µM. Moreover, in the experiment with CAKI-1 renal, the TGI is greater than 100 µM.
Turning to `Cc1cc(O)cc2oc(=O)c3c(O)cc(O)cc3c12`, the TGI was greater than 100 µM in the experiment on M14 melanoma; 54.5 µM in the experiment with RXF 393 renal; 81 µM with UACC-62 melanoma; 66.7 µM in the experiment on COLO 205 colon; greater than 100 µM with UO-31 renal; greater than 100 µM in the experiment with OVCAR-5 ovarian. Also, the values for the TGI in the experiment on KM12 colon, in the experiment on NCI-H460 lung and in the experiment on CAKI-1 renal were greater than 100 µM, 30.8 µM and 90 µM, respectively.
As to `CS(=O)(=O)NNS(=O)(=O)c1cccc([N+](=O)[O-])c1`, the TGI in the experiment with M14 melanoma, in the experiment with RXF 393 renal, in the experiment on UACC-62 melanoma, with COLO 205 colon, in the experiment with UO-31 renal and in the experiment on KM12 colon was greater than 100 µM throughout. Moreover, the TGI with NCI-H460 lung and in the experiment on CAKI-1 renal was greater than 100 µM in each case.
For the molecule `COC(=O)C1=C2CCC(=O)[C@@]2(C)C(OC(C)=O)C=CC1` (stereo not given in full), the TGI with M14 melanoma, in the experiment on RXF 393 renal, in the experiment with UACC-62 melanoma, in the experiment with UO-31 renal, in the experiment on OVCAR-5 ovarian and in the experiment with KM12 colon was greater than 100 µM in each case. For the same molecule, the TGI in the experiment on NCI-H460 lung and with CAKI-1 renal was greater than 100 µM each time.
For the molecule `CCOC12OC3=C(CC1CC1=C(CCC1=O)O2)C(=O)CC3` (stereo not given), the TGI with M14 melanoma, in the experiment on RXF 393 renal, with UACC-62 melanoma, with COLO 205 colon, in the experiment on UO-31 renal and in the experiment on OVCAR-5 ovarian was greater than 100 µM throughout. Besides, the TGI with KM12 colon, in the experiment with NCI-H460 lung and in the experiment on CAKI-1 renal was greater than 100 µM each time.
Regarding `COc1ccc(C(=O)C(c2ccc(OC)cc2)C2(O)C(=O)Nc3ccccc32)cc1` (stereo not given), the TGI in the experiment with M14 melanoma, with UACC-62 melanoma, in the experiment with UO-31 renal, in the experiment on KM12 colon and in the experiment with CAKI-1 renal was greater than 100 µM each time.
Regarding `CN(C)CCNC(=O)c1cc2ccccc2c2nc3ccccc3nc12`, the TGI was 2.33 µM in the experiment with RXF 393 renal; 7.3 µM with UACC-62 melanoma; greater than 100 µM in the experiment on COLO 205 colon; 5.64 µM in the experiment with OVCAR-5 ovarian; 2.89 µM with KM12 colon; greater than 21.3 µM in the experiment on CAKI-1 renal.
Turning to `CC(=O)[CH-]C(=O)c1ccccc1.CC(=O)[CH-]C(=O)c1ccccc1.CC[O-].CC[O-].[Zr+4]`, the GI50 with M14 melanoma, with RXF 393 renal, with UACC-62 melanoma, in the experiment on COLO 205 colon, in the experiment with UO-31 renal and with OVCAR-5 ovarian was greater than 100 µM each time. Moreover, the GI50 in the experiment with KM12 colon is greater than 100 µM; in the experiment with NCI-H460 lung it was greater than 100 µM; with CAKI-1 renal it was 62.8 µM. The TGI in the experiment with M14 melanoma, in the experiment on RXF 393 renal, with UACC-62 melanoma, in the experiment with COLO 205 colon, with UO-31 renal and in the experiment with OVCAR-5 ovarian was greater than 100 µM throughout. Moreover, the TGI in the experiment with KM12 colon, in the experiment with NCI-H460 lung and in the experiment with CAKI-1 renal was greater than 100 µM throughout.
Regarding `O=C(O)C(CP(=O)(O)O)=C(Cl)Cl`, the TGI in the experiment on RXF 393 renal, in the experiment with UACC-62 melanoma, in the experiment on COLO 205 colon, in the experiment with UO-31 renal, with OVCAR-5 ovarian and in the experiment with NCI-H460 lung was greater than 100 µM in each case.
Turning to `Cc1ccc(NC(=O)CCC(CC(=O)C(C)(C)C)=NNC(=O)C(=O)NN)cc1C`, the TGI in the experiment on M14 melanoma, in the experiment on RXF 393 renal, in the experiment with UACC-62 melanoma, with COLO 205 colon, with UO-31 renal and in the experiment on OVCAR-5 ovarian was greater than 100 µM throughout. The TGI with KM12 colon, in the experiment with NCI-H460 lung and with CAKI-1 renal was greater than 100 µM each time.
Regarding `COc1ccc(C(=O)OCC2OC(n3cnc4c(=S)nc[nH]c43)C(OC(=O)c3ccc(OC)cc3)C2OC(=O)c2ccc(OC)cc2)cc1` (stereo not given), the TGI in the experiment with M14 melanoma, with UACC-62 melanoma, in the experiment with COLO 205 colon, in the experiment with UO-31 renal, in the experiment on OVCAR-5 ovarian and with KM12 colon was greater than 100 µM throughout. Further, the TGI with NCI-H460 lung and with CAKI-1 renal was greater than 100 µM throughout.
On to `C/C(=C\C(C)COCc1ccccc1)[C@H](COCc1ccccc1)OCc1ccccc1` (stereo not given in full), for which the TGI in the experiment on M14 melanoma, with RXF 393 renal, in the experiment on UACC-62 melanoma, in the experiment with COLO 205 colon, in the experiment with UO-31 renal and in the experiment on OVCAR-5 ovarian was greater than 100 µM throughout. Further, the TGI with KM12 colon and in the experiment on NCI-H460 lung was greater than 100 µM throughout.
On to `Cc1ccc(NC(=O)C(=O)C2C(=O)N(c3ccccc3)N=C2N)cc1C` (stereo not given), for which the TGI with M14 melanoma, in the experiment on UACC-62 melanoma, in the experiment with COLO 205 colon, with UO-31 renal, in the experiment with OVCAR-5 ovarian and with KM12 colon was greater than 100 µM each time. For the same molecule, the TGI in the experiment on CAKI-1 renal is greater than 100 µM.
Turning to `O=c1/c(=C/c2cccc([N+](=O)[O-])c2)sc2nc3ccccc3n12`, the TGI in the experiment with M14 melanoma, with RXF 393 renal, with UACC-62 melanoma, in the experiment with UO-31 renal, in the experiment with OVCAR-5 ovarian and in the experiment on KM12 colon was greater than 100 µM each time. The same molecule gave a TGI with NCI-H460 lung greater than 100 µM.
As for `[O-]c1c2c(nn1-c1ccccc1)c1ccccc1c[n+]2Cc1ccccc1`, the TGI is greater than 100 µM in the experiment on M14 melanoma; 7.33 µM in the experiment on RXF 393 renal; greater than 100 µM in the experiment on UACC-62 melanoma; greater than 100 µM in the experiment on COLO 205 colon; greater than 100 µM in the experiment with UO-31 renal; greater than 100 µM with OVCAR-5 ovarian. Also, the TGI in the experiment on KM12 colon and in the experiment on NCI-H460 lung was greater than 100 µM in each case.
As to `CCOC(=O)C12CCCC1(O)N(NC(=O)c1ccccc1)C(C)=C2C(=O)OC` (stereo not given), the TGI in the experiment on M14 melanoma, in the experiment with UACC-62 melanoma, in the experiment on COLO 205 colon, with UO-31 renal, in the experiment on OVCAR-5 ovarian and with KM12 colon was greater than 100 µM throughout. Besides, the TGI in the experiment with NCI-H460 lung and in the experiment on CAKI-1 renal was greater than 100 µM throughout.
